The supplement of paper PMC11061612

Experiments:
NB12 (Neuroblastoma) [1] = test: Bliss excess, mean over the matrix (fraction); higher = more synergy
Summary of the method: (§1)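 Bliss excess equals the observed combination effect minus the expected value EA + EB − EA·EB, where EA and EB are the effects of each agent alone. Combination Emax is the second-highest inhibition within the matrix. Inhibition was scaled from CellTiter-Glo 2.0 luminescence, with 0 set by vehicle wells and 1 by blank wells, after 72 hours of two-drug dosing of cells plated in 1536-well plates.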

SK-MEL-2 (Melanoma) [2] = test: as above
Summary of the method: as §1

[3] = tested on: CAL-120 (Breast Carcinoma); test: combination Emax (second highest fraction inhibited in the dose matrix, 72 h); higher = more inhibition; extreme values may be limits of the assay
Summary of the method: as §1

GB-1 (Glioblastoma) = test: as above
Summary of the method: as §1

[4] = tested on: KE-37 (T-Lymphoblastic Leukemia); test: as above
Summary of the method: as §1

NB12 (Neuroblastoma) [5] = test: as above
Summary of the method: as §1

[6] = tested on: NCI-H23 (Lung Adenocarcinoma); test: as above
Summary of the method: as §1

SK-MEL-2 (Melanoma) [7] = test: as above
Summary of the method: as §1

[8] = tested on: TE-8 (Esophageal Squamous Cell Carcinoma); test: as above
Summary of the method: as §1

WM278 (Melanoma) = test: as above
Summary of the method: as §1

Row | SMILES | Bliss excess (NB12 (Neuroblastoma) [1]) | Bliss excess (SK-MEL-2 (Melanoma) [2]) | combination Emax [3] | combination Emax (GB-1 (Glioblastoma)) | combination Emax [4] | combination Emax (NB12 (Neuroblastoma) [5]) | combination Emax [6] | combination Emax (SK-MEL-2 (Melanoma) [7]) | combination Emax [8] | combination Emax (WM278 (Melanoma))
1 | COc1nnc2ccc(N3CCC(c4ccc(OCCN5CCN(C)C(=O)[C@H]5C)cc4)CC3)nn12 [AZD5153] + CCN(CCO)CCCOc1ccc2c(Nc3cc(CC(=O)Nc4cccc(F)c4)[nH]n3)ncnc2c1 [AZD2811] (first compound max 1 µM, 7x7, partner max 1 µM) | 0.0269 | -0.0912 | 0.441 | 0.243 | 1 | 0.937 | 0.666 | 0.485 | 0.556 | 0.466
2 | COc1nnc2ccc(N3CCC(c4ccc(OCCN5CCN(C)C(=O)[C@H]5C)cc4)CC3)nn12 [AZD5153] + C[C@@H]1COCCN1C2=NC(=NC(=C2)C3(CC3)[S@](=N)(=O)C)C4=C5C=CNC5=NC=C4 [AZD6738] (first compound max 1 µM, 7x7, partner max 10 µM) | 0.0067 | 0.0037 | 0.589 | 0.678 | 0.978 | 0.958 | 1 | 0.693 | 0.617 | 0.671
3 | COc1nnc2ccc(N3CCC(c4ccc(OCCN5CCN(C)C(=O)[C@H]5C)cc4)CC3)nn12 [AZD5153] + Cc1c2c(nn1C)CSCc1cc(n(C)n1)CSc1cc(c3ccccc3c1)OCCCc1c(C(=O)O)n(C)c3c-2c(Cl)ccc13 [AZD5991] (first compound max 1 µM, 7x7, partner max 1 µM) | 0.0267 | -0.0198 | 0.403 | 0.288 | 0.997 | 0.942 | 0.997 | 0.984 | 0.705 | 0.484
4 | COc1nnc2ccc(N3CCC(c4ccc(OCCN5CCN(C)C(=O)[C@H]5C)cc4)CC3)nn12 [AZD5153] + Cn1cnc2c(F)c(Nc3ccc(Br)cc3Cl)c(C(=O)NOCCO)cc21 [Selumetinib] (first compound max 1 µM, 7x7, partner max 10 µM) | -0.0428 | -0.0349 | 0.479 | 0.288 | 0.654 | 0.799 | 0.852 | 0.926 | 0.575 | 0.799
5 | NC1(C(=O)N[C@@H](CCO)c2ccc(Cl)cc2)CCN(c2ncnc3[nH]ccc23)CC1 [Capivasertib] + CC(=O)c1c(C)c2cnc(Nc3ccc(N4CCNCC4)cn3)nc2n(C2CCCC2)c1=O [Palbociclib] (first compound max 10 µM, 7x7, partner max 10 µM) | 0.0139 | -0.0408 | 0.561 | 0.476 | 0.76 | 0.399 | 0.512 | 0.0717 | 0.48 | 0.402
6 | NC1(C(=O)N[C@@H](CCO)c2ccc(Cl)cc2)CCN(c2ncnc3[nH]ccc23)CC1 [Capivasertib] + CC(C)n1c(=O)n(C)c2cnc3cc(F)c(-c4ccc(OCCCN5CCCCC5)nc4)cc3c21 [AZD1390] (first compound max 10 µM, 7x7, partner max 0.3 µM) | 0.0009 | -0.0125 | 0.454 | 0.275 | 0.72 | 0.504 | 0.297 | 0.176 | 0.502 | 0.316
7 | NC1(C(=O)N[C@@H](CCO)c2ccc(Cl)cc2)CCN(c2ncnc3[nH]ccc23)CC1 [Capivasertib] + CCN(CCO)CCCOc1ccc2c(Nc3cc(CC(=O)Nc4cccc(F)c4)[nH]n3)ncnc2c1 [AZD2811] (first compound max 10 µM, 7x7, partner max 1 µM) | -0.0279 | -0.0383 | 0.49 | 0.342 | 1 | 0.783 | 0.387 | 0.0759 | 0.6 | 0.431
8 | NC1(C(=O)N[C@@H](CCO)c2ccc(Cl)cc2)CCN(c2ncnc3[nH]ccc23)CC1 [Capivasertib] + COc1nnc2ccc(N3CCC(c4ccc(OCCN5CCN(C)C(=O)[C@H]5C)cc4)CC3)nn12 [AZD5153] (first compound max 10 µM, 7x7, partner max 1 µM) | 0.0031 | -0.0015 | 0.647 | 0.48 | 0.905 | 0.985 | 0.773 | 0.578 | 0.582 | 0.734
9 | NC1(C(=O)N[C@@H](CCO)c2ccc(Cl)cc2)CCN(c2ncnc3[nH]ccc23)CC1 [Capivasertib] + C[C@@H]1COCCN1C2=NC(=NC(=C2)C3(CC3)[S@](=N)(=O)C)C4=C5C=CNC5=NC=C4 [AZD6738] (first compound max 10 µM, 7x7, partner max 10 µM) | -0.0449 | -0.0335 | 0.708 | 0.563 | 0.992 | 0.738 | 0.87 | 0.152 | 0.706 | 0.579
